The results in this text go back to patent publication US20230391779A1, “BICYCLIC COMPOUNDS, COMPOSITIONS AND USE THEREOF” (Betta Pharmaceuticals Co., Ltd., priority 2020, published 2023).

This assay has as its system TEAD-YAP/TAZ interaction. Description: CTGF ELISA assay. It counts as cell-based, human. The following applies: CTGF in culture supernatant of NCI-H2052 cells, 24 hours with compound. In short, it runs like this: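 NCI-H2052 cells treated 24 h at 37 °C with compound (10000–0.61 nM, 0.5% DMSO); secreted CTGF in supernatant measured by sandwich ELISA (OD 450 nm) against a standard curve. EC50 fitted from CTGF concentration-response curves.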

Structures are written as SMILES.

Turning to `C=C(F)C(=O)N1CC(n2nc(-c3ccc(C(F)(F)F)nc3)c3ccccc32)C1` [Compound 197, 2-fluoro-1-(3-(3-(6-(trifluoro-methyl)pyridin-3-yl)-1H-indazol-1-yl)azetidin-1-yl)prop-2-en-1-one], the concentration for a half-maximal effect (EC50) came out at 12.6 nM.

As to `C=C(F)C(=O)N1CC(n2nc(-c3ccc(C(F)(F)F)nc3)c3nccnc32)C1` [Compound 198, 2-fluoro-1-(3-(3-(6-(trifluoro-methyl)pyridin-3-yl)-1H-pyrazolo[3,4-b]pyrazin-1-yl)-azetidin-1-yl)prop-2-en-1-one], the EC50 was found to be 0.9 nM.

Take `C=C(F)C(=O)N1CC(n2nc(-c3ccc(C(F)(F)F)nc3)c3ccc(C)nc32)C1` [Compound 199, 2-fluoro-1-(3-(6-methyl-3-(6-(trifluoromethyl)pyridin-3-yl)-1H-pyrazolo[3,4-b]pyridin-1-yl)-azetidin-1-yl)prop-2-en-1-one]: the EC50 came out at 20 nM.

With `C=C(F)C(=O)N1CC(n2nc(-c3ccc(C(F)(F)F)cc3)c3cc(F)cnc32)C1` [Compound 202, 2-fluoro-1-(3-(5-fluoro-3-(4-(trifluoromethyl)phenyl)-1H-pyrazolo[3,4-b]pyridin-1-yl)-azetidin-1-yl)prop-2-en-1-one], the EC50 stood at 8.1 nM.

Take `C=C(F)C(=O)N1CC(n2nc(-c3ccc(C(F)(F)F)cc3)c3c2CCOC3)C1` [Compound 208, 2-fluoro-1-(3-(3-(4-(trifluoro-methyl)phenyl)-6,7-dihydro-pyrano-[4,3-c]pyrazol-1(4H)-yl)-azetidin-1-yl)prop-2-en-1-one]: the EC50 is 4.1 nM.

Consider `C=C(F)C(=O)N1CC(n2nc3c(c2-c2ccc(C(F)(F)F)cc2)COCC3)C1` [Compound 209, 2-fluoro-1-(3-(3-(4-(trifluoro-methyl)phenyl)-6,7-dihydro-pyrano[4,3-c]pyrazol-2(4H)-yl)azetidin-1-yl)prop-2-en-1-one], for which the EC50 worked out at 25 nM.

As to `C=C(F)C(=O)N1CC(n2nc(-c3ccc(C(F)(F)F)cc3)c3c2CCCC3)C1` [Compound 217, 2-fluoro-1-(3-(3-(4-(trifluoro-methyl)phenyl)-4,5,6,7-tetra-hydro-1H-indazol-1-yl)azetidin-1-yl)prop-2-en-1-one], the EC50 was 5.7 nM.

For `C=C(F)C(=O)N1CC(n2nc(-c3ccc(C(F)(F)F)cc3)c3ccc(OC)nc32)C1` [Compound 221, 2-fluoro-1-(3-(6-methoxy-3-(4-(trifluoromethyl)phenyl)-1H-pyrazolo[3,4-b]pyridin-1-yl)-azetidin-1-yl)prop-2-en-1-one], the EC50 is 0.9 nM.

With `C=C(F)C(=O)N1CC(n2nc(-c3ccc(C(F)(F)F)cc3)c3ccnc(OC)c32)C1` [Compound 222, 2-fluoro-1-(3-(7-methoxy-3-(4-(trifluoromethyl)phenyl)-1H-pyrazolo[3,4-c]pyridin-1-yl)-azetidin-1-yl)prop-2-en-1-one], the EC50 came to 0.9 nM.

Consider `C=C(F)C(=O)N1CC(n2nc(-c3ccc(C(F)(F)F)cc3)c3ncc(OC)nc32)C1` [Compound 223, 2-fluoro-1-(3-(6-methoxy-3-(4-(trifluoromethyl)phenyl)-1H-pyrazolo[3,4-b]pyrazin-1-yl)-azetidin-1-yl)prop-2-en-1-one], for which the EC50 is 0.6 nM.

With `C=C(F)C(=O)N1CC(n2nc(-c3ccc(C(F)(F)F)cc3)c3nc(C)n(C)c(=O)c32)C1` [Compound 225, 1-(1-(2-fluoroacryloyl)azetidin-3-yl)-5,6-dimethyl-3-(4-(trifluoro-methyl)phenyl)-1,6-dihydro-7H-pyrazolo[4,3-d]pyrimidin-7-one], the EC50 came to 3.6 nM.

Take `C=C(F)C(=O)N1CC(n2c(=O)n(-c3ccc(C(F)(F)F)cc3)c3cccnc32)C1` [Compound 230, 3-(1-(2 fluoroacryloyl)azetidin-3 yl)-1-(4-(trifluoromethyl)phenyl)-1,3-dihydro-2H-imidazo[4,5-b]pyridin-2-one]: the EC50 was determined as 6.4 nM.

As to `C=CC(=O)N1CC(n2c(=N)n(-c3ccc(C(F)(F)F)cc3)c3ccccc32)C1` [Compound 231, 1-(3-(2-imino-3-(4-(trifluoromethyl)phenyl)-2,3-dihydro-1H-benzo[d]imidazol-1 yl)azetidin-1 yl)prop-2-en-1-one], the EC50 turned out to be 360 nM.

Regarding `C=CC(=O)N1CC(n2c(=O)n(-c3ccc(C(F)(F)F)cc3)c3ccccc32)C1` [Compound 236, 1-(1-acryloylazetidin-3-yl)-3-(4-(trifluoromethyl)phenyl)-1,3-dihydro-2H-benzo[d]imidazol-2-one], the EC50 amounted to 3 nM.

For `C=C(F)C(=O)N1CC(n2c(=O)n(-c3ccc(C(F)(F)F)cc3)c3ncccc32)C1` [Compound 239, 1-(1-(2-fluoroacryloyl)azetidin-3-yl)-3-(4-(trifluoromethyl)phenyl)-1,3-dihydro-2H-imidazo[4,5-b]pyridin-2-one], the EC50 came to 15 nM.

In the case of `C=C(F)C(=O)N1CC(n2c(=O)n(-c3ccc(C(F)(F)F)cc3)c3cc(C)cnc32)C1` [Compound 244, 3-(1-(2-fluoroacryloyl)azetidin-3-yl)-6-methyl-1-(4-(trifluoromethyl)phenyl)-1,3-dihydro-2H-imidazo[4,5-b]pyridin-2-one], the EC50 amounted to 11 nM.

Take `C=C(F)C(=O)N1CC(n2c(=O)n(-c3ccc(C(F)(F)F)cc3)c3cc(C(F)(F)F)cnc32)C1` [Compound 245, 3-(1-(2-fluoroacryloyl)azetidin-3-yl)-6-(trifluoromethyl)-1-(4-(trifluoromethyl)phenyl)-1,3-dihydro-2H-imidazo[4,5-b]pyridin-2-one]: the EC50 was found to be 32 nM.

On to `C=C(F)C(=O)N1CC(n2c(=O)n(-c3ccc(C(F)(F)F)cc3)c3ccc(Cl)nc32)C1` [Compound 252, 5-chloro-3-(1-(2-fluoroacryloyl)azetidin-3-yl)-1-(4-(trifluoromethyl)phenyl)-1,3-dihydro-2H-imidazo[4,5-b]pyridin-2-one], for which the EC50 was found to be 9.8 nM.

Consider `C=C(F)C(=O)N1CC(Nc2nc(-c3ccc(C(F)(F)F)cc3)nc3ccccc23)C1` [Compound 255, 2 fluoro-1-(3-((2-(4-(trifluoromethyl)phenyl)quinazolin-4 yl)amino)azetidin-1 yl)prop-2-en-1-one], for which the EC50 is 44 nM.

In the case of `C=C(F)C(=O)N1CC(c2nc(-c3ccc(C(F)(F)F)cc3)nc3ccccc23)C1` [Compound 256, 2 fluoro-1-(3-(2-(4-(trifluoromethyl)phenyl)quinazolin-4 yl)azetidin-1 yl)prop-2-en-1-one], the 50% effective concentration (EC50) amounted to 0.7 nM.

A word on the EC50: it is the concentration at which the effect is half-maximal.
